Results on five compounds are retold here after ChEMBL document CHEMBL1201862, “PubChem BioAssay data set” (2004).

The structures appear in SMILES notation.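 Values below derive from 48-hour exposures of cells grown in 96-well plates, with endpoints linearly interpolated between the two concentrations bracketing the appropriate inhibition level. GI50: concentration for 50% inhibition of growth.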 Active and inactive are the calls of the source. Cut-off read from the data, not from the text of the source: active = GI50 up to about 1.1 µM and inactive = higher.

Test systems include A498; A549; ACHN; HCC 2998; HCT-116; HCT-15; HOP-62; HOP-92; K562; KM12; MOLT-4; NCI-H460; NCI-H522; OVCAR-4; OVCAR-8; RPMI-8226; RXF 393; SK-MEL-28; SK-MEL-2; U-251.
Holding throughout (experiment): NCI anticancer screen, dose series, 48 h

With `O=C1C2C3C4C1C1C2[C@H](OCc2ccccc2)C3C1[C@H]4OCc1ccccc1` (stereo not given in full), the GI50 in the test on A498 is > 100 µM (inactive); in the test with A549 it was 40.9 µM (inactive); in the test with ACHN, 47.6 µM (inactive); in the test on HCC 2998, 31.3 µM (inactive); in the test on HCT-116, 50.5 µM (inactive); in the test with HCT-15, 22.2 µM. In addition, the GI50 with HOP-62 was 73.3 µM (inactive); with HOP-92, 17 µM (inactive); with K562, > 100 µM (inactive); in the test on KM12, 52.2 µM (inactive); with MOLT-4, 50.1 µM (inactive); with NCI-H460, 49.8 µM (inactive). The GI50 in the test on NCI-H522 is 11.2 µM (inactive); in the test with OVCAR-4, 70.3 µM (inactive); in the test on OVCAR-8, > 100 µM (inactive); with RPMI-8226 it was 36.6 µM (inactive); with RXF 393 it was 31.8 µM (inactive); in the test on SK-MEL-28 it was 40.2 µM (inactive). Besides, the GI50 in the test with SK-MEL-2 is 51.2 µM (inactive); in the test on U-251 it was 77.3 µM (inactive).
As for `CC(=O)O[C@H]1[C@H](O[C@H]2CC[C@]34C[C@]35CC[C@]3(C)[C@@H]([C@@]6(C)CC[C@@H](C(C)(C)O)O6)[C@@H](O)C[C@@]3(C)[C@@H]5C[C@H](O[C@@H]3O[C@H](CO)[C@@H](O)[C@H](O)[C@H]3O)[C@H]4C2(C)C)OC[C@@H](O)[C@@H]1O`, the GI50 in the test with A498 was > 100 µM (inactive); in the test with A549 it was > 100 µM (inactive); in the test on ACHN, > 100 µM (inactive); in the test with HCC 2998 it was > 100 µM (inactive); in the test with HCT-116, > 100 µM (inactive); in the test with HCT-15, 42.2 µM. The GI50 was > 100 µM (inactive) with HOP-62; > 100 µM (inactive) with HOP-92; 45.3 µM (inactive) with K562; > 100 µM (inactive) in the test with KM12; > 100 µM (inactive) in the test on MOLT-4; 71 µM (inactive) in the test with NCI-H460. In addition, the GI50 is > 100 µM (inactive) in the test on NCI-H522; > 100 µM (inactive) in the test with OVCAR-4; > 100 µM (inactive) with OVCAR-8; 52.6 µM (inactive) with RPMI-8226; > 100 µM (inactive) with RXF 393; > 100 µM (inactive) in the test on SK-MEL-28. For the same compound, the GI50 in the test on SK-MEL-2 was > 100 µM (inactive); in the test with U-251 it was 55 µM (inactive).
Consider `COc1cc(-c2cc(=O)c3c(O)c(OC)c(OC)c(OC)c3o2)cc(OC)c1OC` [GARDENIN], for which the GI50 with A498 was 2.92 µM (inactive); in the test on A549, 7.18 µM (inactive); in the test on ACHN, 3.33 µM (inactive); in the test on HCC 2998 it was 22.5 µM (inactive); in the test with HCT-116, 4.5 µM (inactive); in the test with HCT-15, above 100 µM. The GI50 with HOP-62 was 3.43 µM (inactive); in the test on HOP-92 it was 4.04 µM (inactive); with K562 it was > 100 µM (inactive); in the test on KM12, > 100 µM (inactive); with MOLT-4, > 100 µM (inactive); with NCI-H460, 5.01 µM (inactive). Moreover, the GI50 in the test on NCI-H522 was 9.55 µM (inactive); with OVCAR-4, > 100 µM (inactive); in the test with OVCAR-8, 4.57 µM (inactive); in the test with RPMI-8226, > 44.7 µM (inactive); in the test on RXF 393, 8.83 µM (inactive); with SK-MEL-28, > 100 µM (inactive). In addition, the values for the GI50 with SK-MEL-2 and with U-251 were > 55.6 µM (inactive) and 3.01 µM (inactive), respectively.
For `CC(C)=CCc1c2c(c3occ(-c4ccc(O)c(O)c4)c(=O)c3c1O)C=CC(C)(C)O2` [POMIFERIN], the GI50 is 15.3 µM (inactive) in the test with A498; 2.55 µM (inactive) in the test with A549; 2.39 µM (inactive) with ACHN; 1.22 µM (inactive) in the test on HCC 2998; 1.85 µM (inactive) in the test with HCT-116; 1.91 µM in the test on HCT-15. The GI50 in the test on HOP-62 was 1.89 µM (inactive); in the test on HOP-92, 2.07 µM (inactive); in the test on K562 it was 2.29 µM (inactive); in the test on KM12 it was 1.72 µM (inactive); in the test on MOLT-4, 0.553 µM (active); in the test with NCI-H460 it was 1.64 µM (inactive). Also, the GI50 with NCI-H522 was 0.188 µM (active); in the test on OVCAR-4, 1.59 µM (inactive); with OVCAR-8, 2.81 µM (inactive); in the test on RPMI-8226 it was 1.67 µM (inactive); with RXF 393 it was 2.39 µM (inactive); in the test with SK-MEL-28, 2.51 µM (inactive). Moreover, the GI50 is 2.6 µM (inactive) in the test with SK-MEL-2 and 1.48 µM (inactive) with U-251.
As for `C[C@H](CCC(=O)O)[C@H]1CC[C@H]2[C@@H]3[C@@H](O)C[C@@H]4C[C@H](O)CC[C@]4(C)[C@H]3CC[C@]12C` [URSODIOL], the GI50 was > 100 µM (inactive) with A498; > 100 µM (inactive) in the test on A549; > 100 µM (inactive) in the test on ACHN; > 100 µM (inactive) in the test with HCC 2998; > 100 µM (inactive) with HCT-116; above 100 µM in the test with HCT-15. The GI50 is > 100 µM (inactive) with HOP-62; > 100 µM (inactive) in the test with HOP-92; 72.8 µM (inactive) in the test with K562; > 100 µM (inactive) in the test with KM12; 47.4 µM (inactive) with MOLT-4; > 100 µM (inactive) with NCI-H460. The GI50 was > 100 µM (inactive) with NCI-H522; > 100 µM (inactive) in the test on OVCAR-4; > 100 µM (inactive) in the test on OVCAR-8; 97.9 µM (inactive) in the test on RPMI-8226; > 100 µM (inactive) with RXF 393; > 100 µM (inactive) in the test with SK-MEL-28. The GI50 in the test with SK-MEL-2 and with U-251 was > 100 µM (inactive) in each case.
